Several values for one entry are separate records, joined by “and”; a condition that tells them apart may be missing. Identical values can stand only once. Like-named read-outs stand apart in the source and are kept apart here. Blank lines part the entries; values can stand above or below the molecule they belong to.
Experiments:
Wild-Type PLA2 = target: T1, Wild-Type PLA2 (Sus scrofa, UniProt P00592); experiment: Decylsulfate binding to wild-type PLA2 (3W), Trp emission; design: species or system pig
T1 construct: made in house
Procedure: (§1) Fluorescence emission spectrum or time course of the intensity change from tryptophan or the resonance energy transfer probe TMA-DPH were measured in the ratio mode on SLM-Aminco AB2 in a 1 cm cuvette [31, 32] in 1.6 ml stirred buffer containing 1 or 2 μM PLA2 in 10 mM Tris, 5 mM CaCl2 and 20 mM NaCl at pH 8.0 and 24° C. The slit-widths were 4 nm with excitation at 280.
(§2) For example, as summarized in Table 3, the main effect of the presence of bile salt is on the Trp-signal intensities rather than the dissociation constant for decylsulfate.

PLA2 W3F/R6W mutant = target: T2, PLA2 W3F/R6W mutant (Sus scrofa, UniProt P00592, R28W/W25F); experiment: Decylsulfate binding to W3F/R6W mutant PLA2 (6W), Trp emission; design: species or system pig
T2 construct: made in house
Procedure: as §1, §2

human pancreatic IB PLA2 = target: T3, human pancreatic IB PLA2 (Homo sapiens, UniProt P04054); experiment: Rate-lowering of hydrolysis of DMPC + 0.05 mole fraction cholate vesicles by human pancreatic PLA2; type: biochemical; conditions: 0.03 mole fraction; DMPC + 0.05 mole fraction cholate
T3 construct: gift of Dr. Suren Tatulian (Orlando, Fla.)
Source text: (§3) Independent support for selective binding of the rate lowering compounds to a regulatory site on PLA2 comes from the rate-lowering effect of such compounds on the hydrolysis of DMPC vesicles containing 0.05 mole fraction cholate.
(§4) Scores of other compounds in guggul were not active.

pig pancreatic IB PLA2 = target: T4, pig pancreatic IB PLA2 (Sus scrofa, UniProt P00592); experiment: Rate-lowering of hydrolysis of DMPC + 0.05 mole fraction cholate vesicles by pig pancreatic PLA2; type: biochemical; conditions: for Relative Rate-lowering (%) Activity, pPLA2: 0.03 mole fraction, DMPC + 0.05 mole fraction cholate
T4 construct: made in house
Source text: as §3, §4

[1] = reported in literature [54-56]; cited from earlier work
WT (wild type) pig PLA2 = target: T5, WT (wild type) pig PLA2 (Sus scrofa, UniProt P00592); experiment: PLA2 catalyzed hydrolysis of sonicated DMPC vesicles with added bile salt (pH-stat); type: biochemical; conditions: DMPC vesicles, pancreatic PLA2
T5 construct: made in house
Procedure: Aqueous dispersion of phospholipid was sonicated in a bath type sonicator. Virtually transparent suspension was annealed for at least 4 hours at room temperature before use. Reaction progress for the PLA2 catalyzed hydrolysis of sonicated DMPC (1 mM) vesicles was measured by pH-stat titration (Radiometer) with 1 mM 2-aminopropanediol in 4 ml reaction buffer containing 5 mM CaCl2 for DMPC (or 0.5 mM for DMPM), 1 mM NaCl, […] atmosphere. Reaction was initiated by adding 0.1 μg enzyme in 1-10 μl solution. The pH stat method was also used for monitoring the rate of hydrolysis of DMPM (0.4 mM) vesicles in the presence of polymyxin [27-29], or of the mixed-micelles of POPC with bile salts in 1:2 ratio [13, 30].
Delay before the onset of the stationary phase of the PLA2 catalyzed reaction progress for the hydrolysis of zwitterionic phospholipids has been extensively characterized. […] The apparent rates in FIG. 3 were obtained from the initial slopes of such reaction progress during which <5% of the total substrate is hydrolyzed.
The CMC of the bile salts used in this study range between 0.8 to 5 mM.

T2 sequence (P00592 23-146 W25F/R28W): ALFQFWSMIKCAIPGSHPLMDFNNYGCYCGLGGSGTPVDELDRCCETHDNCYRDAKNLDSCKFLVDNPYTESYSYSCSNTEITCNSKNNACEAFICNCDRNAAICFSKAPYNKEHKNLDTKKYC
T3 sequence (P04054 23-148): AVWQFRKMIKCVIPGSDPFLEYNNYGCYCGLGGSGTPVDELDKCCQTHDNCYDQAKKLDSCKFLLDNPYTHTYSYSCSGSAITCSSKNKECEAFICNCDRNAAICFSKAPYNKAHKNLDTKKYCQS
T1 sequence (P00592 23-146): as the sequence (P00592 23-146 W25F/R28W) above, with F3W, W6R counted along it
T4 sequence (P00592 23-146): as the sequence (P00592 23-146 W25F/R28W) above, with F3W, W6R counted along it
T5 sequence (P00592 23-146): as the sequence (P00592 23-146 W25F/R28W) above, with F3W, W6R counted along it

SMILES: CCCCCCCCCCOS(=O)(=O)O [Decylsulfate]
- a1 decylsulfate binding (Wild-Type PLA2; 3W + 0.2 mM TCDOC): −0.03
- a2 decylsulfate binding (Wild-Type PLA2; 3W + 0.2 mM TCDOC): −0.07
- n2 decylsulfate binding (Wild-Type PLA2; 3W + 0.2 mM TCDOC): 6
- Kd (Wild-Type PLA2; 3W + 0.2 mM TCDOC, read-out: K2^# decylsulfate binding): 540 µM
- a1 decylsulfate binding (Wild-Type PLA2; 3W + Chol (0.2 mM cholate)): 0.10
- n1 decylsulfate binding (Wild-Type PLA2; 3W + Chol (0.2 mM cholate)): 1.5
- Kd (Wild-Type PLA2; 3W + Chol (0.2 mM cholate), read-out: K1^# decylsulfate binding): 50 µM
- a1 decylsulfate binding (Wild-Type PLA2; 3W, no additive): 0.26
- a2 decylsulfate binding (Wild-Type PLA2; 3W, no additive): 0.56
- n1 decylsulfate binding (Wild-Type PLA2; 3W, no additive): 1.8 and 1.7
- n2 decylsulfate binding (Wild-Type PLA2; 3W, no additive): 8
- Kd (Wild-Type PLA2; 3W, no additive, read-out: K1^# decylsulfate binding): 60 µM
- Kd (Wild-Type PLA2; 3W, no additive, read-out: K2^# decylsulfate binding): 650 µM
- a1 decylsulfate binding (PLA2 W3F/R6W mutant; 6W): −0.07
- a2 decylsulfate binding (PLA2 W3F/R6W mutant; 6W): −0.36
- n1 decylsulfate binding (PLA2 W3F/R6W mutant; 6W): 2.7
- n2 decylsulfate binding (PLA2 W3F/R6W mutant; 6W): 2.5
- a1 decylsulfate binding (PLA2 W3F/R6W mutant; 6W + 0.2 mM TCDOC): −0.09
- a2 decylsulfate binding (PLA2 W3F/R6W mutant; 6W + 0.2 mM TCDOC): −1.1
- n2 decylsulfate binding (PLA2 W3F/R6W mutant; 6W + 0.2 mM TCDOC): 2.0
- Kd (PLA2 W3F/R6W mutant; 6W + 0.2 mM TCDOC, read-out: K2^# decylsulfate binding): 650 µM
- Kd (PLA2 W3F/R6W mutant; 6W, read-out: K1^# decylsulfate binding): 50 µM
- Kd (PLA2 W3F/R6W mutant; 6W, read-out: K2^# decylsulfate binding): 510 µM

- Relative Rate-lowering (%) Activity, hPLA2 (human pancreatic IB PLA2): 5%
- Relative Rate-lowering (%) Activity, pPLA2 (pig pancreatic IB PLA2): 30%
- relative effectiveness in lowering the rate with pig pancreatic PLA2 (pig pancreatic IB PLA2; DMPC vesicles containing 0.05 mole fraction cholate, FIG. 6): more effective
SMILES: O=C1[C@H](CC[C@H](O)c2ccc(F)cc2)[C@@H](c2ccc(O)cc2)N1c1ccc(F)cc1 [Ezetimibe]
- reported side effects [1]: hepatotoxicity, cholestatic hepatitis, acute autoimmune hepatitis, myopathy, and modulation of monocytic raft assembly

SMILES: C[C@H](CCC(=O)NCC(=O)O)[C@H]1CC[C@H]2[C@@H]3CC[C@@H]4C[C@H](O)CC[C@]4(C)[C@H]3C[C@H](O)[C@]12C [GDOC, glycodeoxycholate]
- effect of bile salt on the rate of hydrolysis (monophasic/biphasic) (WT (wild type) pig PLA2): biphasic effect

- Relative Rate-lowering (%) Activity, hPLA2 (human pancreatic IB PLA2): 56%
- Relative Rate-lowering (%) Activity, pPLA2 (pig pancreatic IB PLA2): 90%
SMILES: CC=C1C(O)C[C@H]2[C@@H]3CCC4=CC(=O)CC[C@]4(C)[C@H]3CC[C@]12C (some centres unmarked) [Gugguloster-3-one-16-ol]

- Relative Rate-lowering (%) Activity, hPLA2 (human pancreatic IB PLA2): 53%
- Relative Rate-lowering (%) Activity, pPLA2 (pig pancreatic IB PLA2): 85%
SMILES: C/C=C1\C(=O)C[C@H]2[C@@H]3CCC4=CC(=O)CC[C@]4(C)[C@H]3CC[C@]12C [Guggulosterone]
